From ChEMBL document CHEMBL1158295, “Five new monotetrahydrofuran ring acetogenins from the leaves of Annona muricata” (J Nat Prod, 1996)
≈ marks a conversion by molar mass, not a printed value.

Key:
[1] = tested on: MIA PaCa-2; assay: Cytotoxicity against human MIAPaCa2 cells; format: functional; settings: read-out: ED50 (the source's name)
[2] = tested on: PC-3; assay: Cytotoxicity against human PC3 cells; format: functional; settings: read-out: ED50 (the source's name)
[3] = tested on: MCF7; assay: Cytotoxicity against human MCF7 cells; format: functional; settings: read-out: ED50 (the source's name)
[4] = tested on: A549; assay: Cytotoxicity against human A549 cells; format: functional; settings: read-out: ED50 (the source's name)
[5] = tested on: Artemia; assay: Toxicity to brine shrimp; format: organism-based; settings: in vivo
[6] = tested on: A498; assay: Cytotoxicity against human A498 cells; format: functional; settings: read-out: ED50 (the source's name)
[7] = tested on: HT-29; assay: Cytotoxicity against human HT29 cells; format: functional; settings: read-out: ED50 (the source's name)

Structure (SMILES) | EC50 [1] | EC50 [2] | EC50 [3] | EC50 [4] | LC50 [5] | EC50 [6] | EC50 [7]
CCCCCCCCCCCC[C@@H](O)[C@H](O)CC[C@H](O)[C@@H]1CC[C@@H](C[C@H](O)CCCCC[C@@H](O)CC2=C[C@H](C)OC2=O)O1 [ANNOPENTOCIN A] | 0.0358 µg/mL (≈ 0.0584 µM) | 1.14 µg/mL (≈ 1.86 µM) | 17.9 µg/mL (≈ 29.3 µM) | 0.171 µg/mL (≈ 0.279 µM) | 8.9 ppm | 0.607 µg/mL (≈ 0.99 µM) | 1.63 µg/mL (≈ 2.66 µM)
CCCCCCCCCCCC[C@H](O)[C@@H](O)CC[C@H](O)[C@@H]1CC[C@@H](C[C@H](O)CCCCC[C@@H](O)CC2=C[C@H](C)OC2=O)O1 [ANNOPENTOCIN B] | 0.162 µg/mL (≈ 0.264 µM) | 0.212 µg/mL (≈ 0.346 µM) | 3.56 µg/mL (≈ 5.81 µM) | 0.0274 µg/mL (≈ 0.0447 µM) | 11.2 ppm | 0.379 µg/mL (≈ 0.618 µM) | 1.64 µg/mL (≈ 2.68 µM)
CCCCCCCCCCCC[C@H](O)[C@H](O)CC[C@H](O)[C@@H]1CC[C@@H](C[C@H](O)CCCCC[C@@H](O)CC2=C[C@H](C)OC2=O)O1 [ANNOPENTOCIN C] | 0.428 µg/mL (≈ 0.698 µM) | 0.228 µg/mL (≈ 0.372 µM) | 2.97 µg/mL (≈ 4.85 µM) | 0.0206 µg/mL (≈ 0.0336 µM) | 13.8 ppm | 0.258 µg/mL (≈ 0.421 µM) | 1.24 µg/mL (≈ 2.02 µM)
COc1cccc2c1C(=O)c1c(O)c3c(c(O)c1C2=O)C[C@@](O)(C(=O)CO)C[C@@H]3O[C@H]1C[C@H](N)[C@H](O)[C@H](C)O1 [DOXORUBICIN] | 0.00423 µg/mL (≈ 0.00778 µM) | 0.0583 µg/mL (≈ 0.107 µM) | 0.495 µg/mL (≈ 0.911 µM) | 0.00428 µg/mL (≈ 0.00787 µM) | 2.57 ×10⁻¹ ppm | 0.0462 µg/mL (≈ 0.085 µM) | 0.0498 µg/mL (≈ 0.0916 µM)
